Measured values reported in patent publication US9988375B2, “Inhibitors of lysine gingipain” (priority 2014, dated 2018).
“Also recorded” adds a separate entry of the source. Where two headings read alike, the source gives them in different places.

Experiments:
[1] = target: lysine gingipain (Kgp) (Porphyromonas gingivalis (strain ATCC 33277 / DSM 20709 / CIP 103683 / JCM 12257 / NCTC 11834 / 2561), UniProt B2RLK2); experiment: Lysine gingipain (Kgp) fluorogenic inhibition assay; format: biochemical
Protocol: The capacities of compounds of the present invention to inhibit the activity of lysine gingipain were measured in a fluorogenic assay similar to those described in Barret Biochemical Journal. 1980, 187(3), 909. The specific assay conditions were as follows. Buffer: pH=7.5, 100 mM Tris-HCl, 75 mM NaCl, 2.5 mM CaCl2, 10 mM cysteine, 1% DMSO after all additions. Protein: 0.1 nM Kgp, isolated from culture of Porphyromonas gingivalis, as described in Pike et al. J. Biol. Chem. 1994, 269(1), 406, and Potempa and Nguyen. Current Protocols in Protein Scienc. 2007, 21.20.1-21.20.27. Fluorogenic substrate: 10 uM Z-His-Glu-Lys-MCA. Time=90 minutes. Temperature=37° C. Each compound: 10 concentrations, starting at either 100 uM or 100 nM, with lower concentrations generated by serial 3-fold dilutions. By testing a range of concentrations for each compound, the concentration required to inhibit the activity of lysine gingipain by 50% (the “IC50”) was determined. Under the described assay conditions, signal-to-noise was excellent, and Z factor was greater than 0.6.
(§1) The inhibitory of activity of compounds described herein was tested against Kgp, RgpB, and trypsin.

[2] = target: trypsin (Homo sapiens (Human), UniProt P07477); experiment: Trypsin inhibition; format: biochemical
Protocol: as §1

[3] = test system: differentiated SHSY-5Y cells; experiment: Gingipain-induced death of differentiated SH-SY5Y cells; format: cell-based; details: 100 nM Kgp and/or RgpB for 24 hours
Protocol: SH-SY5Y neuroblastoma cells were cultured and differentiated in the presence of 5 uM retinoic acid based on established methods [Saberi S., et al. Cell Mol Neurobiol 2013. 33: 747-751]. Differentiation into neuronal cells was verified by observation of neurite outgrowth. The differentiated cells were exposed to 100 nM Kgp and/or RgpB for 24 hours, in the presence or absence of Kgp inhibitors. Results were recorded using a digital microscope camera (FIG. 1C, FIG. 2C). Gingipains are toxic to cells while COR compounds prevent the cytotoxicity.

[4] = test system: abeta 42; experiment: Brain abeta 42 ELISA in mice orally infected with P. gingivalis; format: in vivo, Balb/cJ mice; details: subcutaneously three times per day on days 21-42
Description: Female Balb/cJ mice were obtained from Taconic and allowed to acclimate. 43-44 week old mice were challenged orally with 10^9 CFU W83 P. gingivalis or a P. gingivalis strain lacking expression of Kgp every other day for 42 days. Compound 2 or vehicle (2% DMSO) was given subcutaneously three times per day on days 21-42. On day 42 mice were sacrificed and the brain removed and frozen. A sample including hippocampal tissue was lysed in RIPA buffer with protease inhibitors and analyzed for Abeta42 expression with the Amyloid beta 42 ELISA Kit, Mouse (Life Technologies).

[5] = target: RgpB (Porphyromonas gingivalis (strain ATCC BAA-308 / W83), UniProt P95493); experiment: RgpB inhibition; format: biochemical
Protocol: as §1

[6] = test system: SHSY5Y cells; experiment: P. gingivalis-induced toxicity in SHSY5Y cells in vitro; format: cell-based; details: compared to the antibiotic moxifloxacin

## NCCCC[C@H](NC(=O)C1CCCCC1)C(=O)c1nc2ccccc2s1 [Compound 2, N-[(1S)-5-amino-1-(1,3-benzothiazole-2-carbonyl)pentyl]cyclohexanecarboxamide]
[1]; read-out: Kgp IC50
  IC50: 1 to 10 nM
[2]
  IC50: 5000 nM
[3]
  prevention of gingipain-induced death of differentiated SHSY-5Y cells: prevents; also recorded: more effective; also recorded: effective at preventing cell death
[4]
  brain levels of abeta 42 (ELISA): resolved; also recorded: increase in abeta42 that was not apparently

## NCCCC[C@H](NC(=O)C1CCCC1)C(=O)COc1c(F)c(F)cc(F)c1F [Compound 43, N-[(1S)-5-amino-1-[2-(2,3,5,6-tetrafluorophenoxy)acetyl]pentyl]cyclo-pentanecarboxamide]
[1]; 0.1 nM Kgp, 10 uM Z-His-Glu-Lys-MCA, 90 minutes, 37° C., pH 7.5, read-out: Kgp IC50 average
  IC50: ≤ 1 nM
[1]; in words
  lysine gingipain IC50 value: sub-nanomolar
[5]
  IC50: > 475 nM
[6]
  protection of SHSY5Y cells from P. gingivalis-induced toxicity: protects
